From PMC11279465, “Dual Inhibitors of P-gp and Carbonic Anhydrase XII (hCA XII) against Tumor Multidrug Resistance with Piperazine Scaffold” (Molecules, 2024)

What was measured:
hCA I = molecular target: T1, hCA I (Homo sapiens, UniProt P00915); experiment: CA inhibition, stopped-flow CO2 hydrase assay; type: biochemical; details: stopped-flow technique; incubation time 6 h; mean of 3 assays
T1 construct: made in house
Summary of the method: (§1)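 Stopped-flow CO2 hydration used saturated CO2 solutions at 25 °C as substrate. Enzyme and inhibitor (10 μM stocks in DMSO-water, diluted down to 0.01 nM) were preincubated for 6 h at room temperature.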

hCA II = molecular target: T2, hCA II (Homo sapiens, UniProt P00918); experiment: CA inhibition, stopped-flow CO2 hydrase assay; type: biochemical; details: stopped-flow technique; incubation time 6 h; mean of 3 assays
T2 construct: made in house
Summary of the method: as §1

hCA IX = molecular target: T3, hCA IX (Homo sapiens, UniProt Q16790); experiment: CA inhibition, stopped-flow CO2 hydrase assay; type: biochemical; details: stopped-flow technique; incubation time 6 h; mean of 3 assays
T3 construct: made in house
Summary of the method: as §1

hCA XII = molecular target: T4, hCA XII (Homo sapiens, UniProt O43570); experiment: CA inhibition, stopped-flow CO2 hydrase assay; type: biochemical; details: stopped-flow technique; incubation time 6 h; mean of 3 assays
T4 construct: made in house
T4 sequence (O43570 25-354): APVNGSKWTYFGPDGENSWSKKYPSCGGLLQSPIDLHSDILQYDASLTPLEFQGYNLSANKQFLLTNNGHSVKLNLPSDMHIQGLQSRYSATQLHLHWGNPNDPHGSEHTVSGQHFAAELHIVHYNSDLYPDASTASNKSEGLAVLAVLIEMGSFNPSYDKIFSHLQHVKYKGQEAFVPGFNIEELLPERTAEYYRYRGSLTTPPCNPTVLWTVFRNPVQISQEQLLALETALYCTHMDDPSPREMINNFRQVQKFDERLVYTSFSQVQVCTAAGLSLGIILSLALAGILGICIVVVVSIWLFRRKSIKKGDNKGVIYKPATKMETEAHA
Summary of the method: as §1

K562/DOX cells [1] = experiment: Doxorubicin cytotoxicity enhancement assay (MTT); type: cell-based, human; details: compound at 1 µM, 72 h
Summary of the method: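 K562/DOX cells exposed 72 h to varying doxorubicin concentrations plus 1 or 3 µM test compound. Viability by MTT absorbance, expressed as percentage of untreated control cells.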

K562/DOX cells [2] = experiment: Intrinsic cytotoxicity (MTT); type: cell-based, human; details: compound alone at 3 µM, 72 h
Method: Compounds were first studied at 1 and 3 µM concentrations to evaluate their intrinsic cytotoxicity in both the parental K562 and the resistant K562/DOX cell lines, using the MTT assay. All compounds had no intrinsic cytotoxicity in the parental line.
(§2) The intrinsic toxicity of the studied compounds was determined by an MTT assay. K562 and K562/DOX were exposed for 72 h with compounds at 1 and 3 µM concentrations while HT29, A549, HT29/DOX and A549/DOX cells were incubated for 48 h with compounds used at different concentrations (from 10 nM to 50 µM). The percentage of growth compared to the untreated control was transformed into histograms with the GraphPad Prism 5 program.

A549/DOX cells [3] = experiment: Intrinsic cytotoxicity (MTT); type: cell-based, human; details: compound alone at 1 µM; A549/DOX; 48 h
Method: (§3) All compounds were preliminarily studied to evaluate their intrinsic cytotoxicity at different concentrations (from 10 nM to 50 µM) in the parental HT29 and A549 and the resistant HT29/DOX and A549/DOX cells using the MTT assay.
as §2, with “program. […]” for “program.”

HT29/DOX cells [4] = experiment: Intrinsic cytotoxicity (MTT); type: cell-based, human; details: compound alone at 1 µM; HT29/DOX; 48 h
Method: as §3
as §2, with “program. […]” for “program.”

A549/DOX cells [5] = experiment: Doxorubicin co-administration assay (MTT); type: cell-based, human; details: compound at 3 µM + doxorubicin 5 µM, 48 h
Method: (§4) These compounds were then assayed at 1 and 3 µM concentrations in co-administration with doxorubicin at a concentration of 5 µM, which is known to discriminate well between sensitive and resistant cells. […] Moreover, in the A549/DOX cell line, the co-administration of 1, 2, 4–6, 14 and 19, tested at 3 µM, led to the highest enhancement of doxorubicin toxicity reaching a reduction of nearly 55.0% in cell viability.
(§5) K562/DOX cells were incubated for 72 h with different concentrations of doxorubicin in combination with 1 or 3 µM of all compounds. IC50 was the concentration killing 50% of cells and was determined graphically from relative survival curves obtained by GraphPad Prism 5 software (GraphPad, San Diego, CA, USA). HT29, A549, HT29/DOX and A549/DOX cells were incubated for 48 h with 5 µM doxorubicin, alone or in combination with 1 or 3 µM of selected compounds. Cell viability of the cell lines was measured by the MTT assay, using a Synergy HT microplate spectrofluorometer (Bio-Tek Instruments, Winooski, VT, USA). The absorbance of untreated cells was considered 100%; results were expressed as a percentage of viable treated cells versus the control untreated cells.

HT29/DOX cells [6] = experiment: Doxorubicin co-administration assay (MTT); type: cell-based, human; details: compound at 3 µM + doxorubicin 5 µM, 48 h
Method: as §4, §5

A549/DOX cells [7] = experiment: Intracellular doxorubicin accumulation; type: cell-based, human; details: compound at 3 µM + doxorubicin 5 µM, 24 h, vs doxorubicin alone
Method: (§6) Furthermore, we evaluated the intracellular accumulation of 5 µM doxorubicin in HT29/DOX and A549/DOX cells alone and in the presence of derivatives 1, 2, 4–6, 14, 19 and 33, studied at 1 and 3 µM. This test allowed us to investigate if the reduced viability measured in the co-administration assay was due to different retention of the anticancer drug within the cells. In the parental HT29 and A549 cell lines, we measured a greater amount of intracellular doxorubicin compared to their resistant counterparts, which was not enhanced by our selected compounds (Supplementary Materials, Figure S7). However, in HT29/DOX and A549/DOX cells, derivatives 1, 2, 4–6, 14, 19 and 33 were able to increase the intracellular retention of the anticancer drug, in a dose-dependent way. […]
(§7) Intracellular doxorubicin was measured in 10,000 cells seeded into 96-well plates and incubated for 24 h with 5 µM doxorubicin with or without 1 µM and 3 µM of each compound. The intracellular drug content was measured fluorimetrically as detailed previously using a Synergy HTX 96-well plate reader. The results were expressed as nmol doxorubicin/mg cell proteins based on the titration curve previously prepared.

HT29/DOX cells [8] = experiment: Intracellular doxorubicin accumulation; type: cell-based, human; details: compound at 3 µM + doxorubicin 5 µM, 24 h, vs doxorubicin alone
Method: as §6, §7

P-gp = P-gp (Homo sapiens, UniProt P08183); experiment: Calcein-AM transport inhibition in MDCK-MDR1 cells; type: cell-based; set-up: expressed in transfected cells; host or cells: MDCK (Madin-Darby Canine Kidney); details: mean ± SEM
P-gp, sequence (P08183 whole entry): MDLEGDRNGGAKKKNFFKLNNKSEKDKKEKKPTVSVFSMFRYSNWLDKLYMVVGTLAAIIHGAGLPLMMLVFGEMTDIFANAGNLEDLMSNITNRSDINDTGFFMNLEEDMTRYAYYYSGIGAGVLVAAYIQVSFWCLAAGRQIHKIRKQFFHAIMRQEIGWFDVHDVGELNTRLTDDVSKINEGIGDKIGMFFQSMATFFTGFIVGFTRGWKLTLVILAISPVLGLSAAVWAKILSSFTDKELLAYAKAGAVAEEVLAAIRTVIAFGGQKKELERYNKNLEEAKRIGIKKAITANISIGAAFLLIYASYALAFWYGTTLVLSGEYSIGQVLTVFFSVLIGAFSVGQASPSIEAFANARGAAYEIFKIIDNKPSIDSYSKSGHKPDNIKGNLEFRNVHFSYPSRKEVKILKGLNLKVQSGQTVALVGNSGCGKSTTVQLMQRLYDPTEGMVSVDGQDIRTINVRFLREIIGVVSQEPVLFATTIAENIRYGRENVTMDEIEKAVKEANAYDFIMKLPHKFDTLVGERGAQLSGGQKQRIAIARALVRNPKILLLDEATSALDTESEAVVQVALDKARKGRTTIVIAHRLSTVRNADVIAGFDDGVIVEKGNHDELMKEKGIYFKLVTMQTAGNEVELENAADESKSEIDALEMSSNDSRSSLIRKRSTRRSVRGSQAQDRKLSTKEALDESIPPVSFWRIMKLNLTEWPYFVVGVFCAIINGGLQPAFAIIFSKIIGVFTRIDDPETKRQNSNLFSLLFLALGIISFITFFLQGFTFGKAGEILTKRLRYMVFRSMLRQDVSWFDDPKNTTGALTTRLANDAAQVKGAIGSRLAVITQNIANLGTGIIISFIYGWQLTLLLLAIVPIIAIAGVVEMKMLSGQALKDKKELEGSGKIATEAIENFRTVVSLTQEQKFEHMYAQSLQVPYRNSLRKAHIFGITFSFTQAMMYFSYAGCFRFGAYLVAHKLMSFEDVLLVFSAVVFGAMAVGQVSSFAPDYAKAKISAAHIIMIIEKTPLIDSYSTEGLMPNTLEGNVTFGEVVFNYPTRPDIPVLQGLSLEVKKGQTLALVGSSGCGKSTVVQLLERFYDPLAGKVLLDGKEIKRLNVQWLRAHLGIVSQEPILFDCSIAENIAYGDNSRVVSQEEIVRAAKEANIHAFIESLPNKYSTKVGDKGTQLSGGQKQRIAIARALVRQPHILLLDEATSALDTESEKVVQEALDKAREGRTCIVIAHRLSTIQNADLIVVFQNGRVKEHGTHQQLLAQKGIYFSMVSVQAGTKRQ
Excerpt: The MDR interaction potency of these compounds was studied by detecting the inhibition of the P-gp-, MRP1- or BCRP-mediated efflux of a substrate in cells overexpressing the studied pumps. In detail, we measured the following: (i) the transport inhibition of the profluorescent probe calcein-AM (P-gp and MRP1 substrate) in MDCK-MDR1 and MDCK-MRP1 cells (P-gp- and MRP1-overexpressing cells, respectively); (ii) the transport inhibition of the fluorescent probe Hoechst 33342 (BCRP substrate) in MDCK-BCRP cells (BCRP-overexpressing cells).
Experiments were performed as previously described. MDCK-MDR1 and MDCK-MRP1 cells (30,000 cells per well) were seeded in a 96-well black CulturePlate in 100 µL of medium and allowed to grow overnight in a humidified atmosphere of 5% CO2 at 37 °C. Tested compounds (100 µL) in a final concentration ranging between 0.01 nM and 100 µM, solubilized in culture medium, were added to the monolayers. After 30 min in a humidified atmosphere of 5% CO2 at 37 °C, 100 µL of Calcein-AM in phosphate-buffered saline (PBS) was added to obtain a final concentration of 2.5 µM and the plate was incubated for 30 min. All wells were washed 3 times with 100 µL ice-cold PBS and read with Victor3 (PerkinElmer) after adding 100 µL of cold PBS. Excitation and emission wavelengths of 485 nm and 535 nm, respectively, were used. In these experimental conditions, cell Calcein-AM accumulation in the absence and in the presence of each tested compound was evaluated and compared to the basal level of fluorescence derived from untreated cells. The increase in fluorescence from the baseline level was measured in the treated wells. EC50 values were determined by fitting the rate of fluorescence increase versus log[dose].

T1 sequence (P00915 whole entry): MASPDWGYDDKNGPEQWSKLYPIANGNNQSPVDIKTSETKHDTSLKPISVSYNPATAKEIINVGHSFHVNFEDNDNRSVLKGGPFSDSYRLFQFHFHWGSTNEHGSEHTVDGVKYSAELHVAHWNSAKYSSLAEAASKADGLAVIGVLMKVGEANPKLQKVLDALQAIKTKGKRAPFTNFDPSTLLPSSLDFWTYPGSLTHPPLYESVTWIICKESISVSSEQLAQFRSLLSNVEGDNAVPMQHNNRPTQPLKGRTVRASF

SMILES | Ki (hCA I) [nM] | Ki (hCA II) [nM] | Ki (hCA IX) [nM] | Ki (hCA XII) [nM] | RF (Reversal Fold: IC50 of doxorubicin alone / in presence of modulator) (K562/DOX cells [1]) | reduction of cellular viability (K562/DOX cells [2]) | toxicity (A549/DOX cells [3]) [%] | toxicity (HT29/DOX cells [4]) [%] | reduction in cell viability (A549/DOX cells [5]) [%] | reduction in cell viability (HT29/DOX cells [6]) [%] | greater accumulation of doxorubicin (A549/DOX cells [7]) [fold] | greater accumulation of doxorubicin (HT29/DOX cells [8]) [fold] | EC50 (P-gp) [nM]
COc1ccc(C(CCCN2CCN(CCOc3ccc4ccc(=O)oc4c3)CC2)c2ccc(OC)cc2)cc1 [Compound 25, 7-(2-(4-(4,4-Bis(4-methoxyphenyl)butyl)piperazin-1-yl)ethoxy)-2H-chromen-2-one] | > 10000 | > 10000 | 113 | 84.7 | 5.9 | 30–50% | ≥ 35 | ≥ 35 |  |  |  |  | 
COc1ccc(C(CCCN2CCN(CCCCOc3ccc4oc(=O)ccc4c3)CC2)c2ccc(OC)cc2)cc1 [Compound 33, 6-(4-(4-(4,4-Bis(4-methoxyphenyl)butyl)piperazin-1-yl)butoxy)-2H-chromen-2-one] | > 10000 | > 10000 | 74.6 | 46.8 | 9.9 |  |  |  | 62.6 | 67.6 | 4 | 3 | 3020 ± 90
